Results reported in ChEMBL document CHEMBL1201862, “PubChem BioAssay data set” (2004).
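Dose response: 5 concentrations. Exposure: 48 h. Format: 96-well plates. Endpoint: linear interpolation; highest concentration if not reached. Abbreviation: GI50, concentration required for 50% inhibition of growth.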 Activity calls are given as the source filed them. Rule as the data show it: active = GI50 up to about 1.1 µM and inactive = higher.

How the values were obtained:
Experiment in all cases: NCI tumour cell line growth inhibition, 48 h
786-0 = system: 786-0
DU-145 = system: DU-145
HCT-15 = system: HCT-15
IGROV-1 = system: IGROV-1
K562 = system: K562
KM12 = system: KM12
MCF7 = system: MCF7
MDA-MB-435 = system: MDA-MB-435
NCI-H460 = system: NCI-H460
NCI-H522 = system: NCI-H522
OVCAR-3 = system: OVCAR-3
PC-3 = system: PC-3
RXF 393 = system: RXF 393
SF-295 = system: SF-295
SW-620 = system: SW-620
T47D = system: T47D
UACC-257 = system: UACC-257
UO-31 = system: UO-31
Hs-578T = system: Hs-578T

SMILES | GI50 (786-0) | GI50 (DU-145) | GI50 (HCT-15) [µM] | GI50 (IGROV-1) | GI50 (K562) | GI50 (KM12) | GI50 (MCF7) | GI50 (MDA-MB-435) | GI50 (NCI-H460) | GI50 (NCI-H522) | GI50 (OVCAR-3) | GI50 (PC-3) | GI50 (RXF 393) | GI50 (SF-295) | GI50 (SW-620) | GI50 (T47D) | GI50 (UACC-257) | GI50 (UO-31) | GI50 (Hs-578T)
NC(=O)Nc1ccc(S(=O)(=O)Nc2ccc(S(N)(=O)=O)cc2)cc1 | > 100 µM (inactive) | > 100 µM (inactive) | > 100 | > 100 µM (inactive) | > 100 µM (inactive) | > 100 µM (inactive) | > 100 µM (inactive) | > 100 µM (inactive) | > 100 µM (inactive) | > 100 µM (inactive) | > 100 µM (inactive) | > 100 µM (inactive) | > 100 µM (inactive) | > 100 µM (inactive) | > 100 µM (inactive) | > 100 µM (inactive) | > 100 µM (inactive) | > 100 µM (inactive) | –
COc1cccc(CCn2c(N)c(-c3ccccc3)c3ccc([N+](=O)[O-])cc3c2=O)c1 | 6.25 µM (inactive) | 13.7 µM (inactive) | 7.08 | 5.6 µM (inactive) | 1.02 µM (active) | 4.36 µM (inactive) | 3.46 µM (inactive) | 21.9 µM (inactive) | 13.6 µM (inactive) | 2.93 µM (inactive) | 2.58 µM (inactive) | 9.53 µM (inactive) | – | 3.78 µM (inactive) | 25.7 µM (inactive) | 2.05 µM (inactive) | 17.3 µM (inactive) | 9.02 µM (inactive) | 1.85 µM (inactive)
C=CCSc1nn(CC=C)cc2ncnc1-2 | > 100 µM (inactive) | > 100 µM (inactive) | > 100 | > 100 µM (inactive) | > 100 µM (inactive) | > 100 µM (inactive) | > 100 µM (inactive) | > 100 µM (inactive) | > 100 µM (inactive) | – | > 100 µM (inactive) | > 100 µM (inactive) | > 100 µM (inactive) | > 100 µM (inactive) | > 100 µM (inactive) | > 100 µM (inactive) | > 100 µM (inactive) | > 100 µM (inactive) | > 100 µM (inactive)
N#Cc1ccc(OCc2nc3cc(C(F)(F)F)ccc3nc2-c2ccccc2)cc1 | > 100 µM (inactive) | > 100 µM (inactive) | > 10 | > 100 µM (inactive) | – | > 100 µM (inactive) | > 100 µM (inactive) | > 100 µM (inactive) | > 100 µM (inactive) | 7.62 µM (inactive) | > 100 µM (inactive) | > 100 µM (inactive) | – | > 100 µM (inactive) | > 100 µM (inactive) | > 100 µM (inactive) | > 100 µM (inactive) | > 100 µM (inactive) | > 100 µM (inactive)
O=C(/C=C\c1ccc([N+](=O)[O-])cc1)c1ccccc(=O)c1O | 0.769 µM (active) | 2.11 µM (inactive) | 0.169 | 1.14 µM (inactive) | 0.92 µM (active) | 1.04 µM (active) | 0.277 µM (active) | 0.989 µM (active) | 0.518 µM (active) | 1.39 µM (inactive) | 2.49 µM (inactive) | 1.95 µM (inactive) | – | 1.42 µM (inactive) | 1.3 µM (inactive) | 2.67 µM (inactive) | 1.77 µM (inactive) | 1.02 µM (active) | 3.88 µM (inactive)
O=C(Nc1ccccc1)N(C1=NCC(CI)S1)c1ccc(F)c(F)c1 (stereo not drawn) | 43.2 µM (inactive) | > 100 µM (inactive) | 28.1 | 38.8 µM (inactive) | 27 µM (inactive) | 32.6 µM (inactive) | 22.4 µM (inactive) | – | 35.2 µM (inactive) | – | 28.3 µM (inactive) | 25.4 µM (inactive) | – | > 100 µM (inactive) | 28.2 µM (inactive) | 18.3 µM (inactive) | 31 µM (inactive) | 44.7 µM (inactive) | 64 µM (inactive)
CN(C(=O)c1ccc(Cl)s1)C(=S)N(C)C(=O)c1ccc(Cl)s1 | > 10 µM (inactive) | > 10 µM (inactive) | > 10 | > 10 µM (inactive) | > 10 µM (inactive) | > 10 µM (inactive) | > 10 µM (inactive) | – | > 10 µM (inactive) | > 10 µM (inactive) | > 10 µM (inactive) | > 10 µM (inactive) | > 10 µM (inactive) | > 10 µM (inactive) | > 10 µM (inactive) | > 10 µM (inactive) | > 10 µM (inactive) | > 10 µM (inactive) | > 10 µM (inactive)
Cc1ccc(C(=O)c2[nH]c(Nc3cc(C)ccn3)c(C(=S)Nc3ccccc3)c2N)cc1 | > 100 µM (inactive) | > 100 µM (inactive) | > 100 | > 100 µM (inactive) | > 100 µM (inactive) | > 100 µM (inactive) | 87.5 µM (inactive) | > 100 µM (inactive) | > 100 µM (inactive) | > 100 µM (inactive) | > 100 µM (inactive) | – | > 100 µM (inactive) | > 100 µM (inactive) | > 100 µM (inactive) | > 100 µM (inactive) | > 100 µM (inactive) | > 100 µM (inactive) | > 100 µM (inactive)
COc1ccc(N2C(=O)/C(=C/c3ccc(N(CCC#N)CCC#N)cc3)N=C2c2ccccc2)c(OC)c1 | > 100 µM (inactive) | > 100 µM (inactive) | 40.2 | > 100 µM (inactive) | 18.1 µM (inactive) | 35.5 µM (inactive) | 61.7 µM (inactive) | > 100 µM (inactive) | > 100 µM (inactive) | 22 µM (inactive) | 98.4 µM (inactive) | – | – | > 100 µM (inactive) | > 100 µM (inactive) | 27.1 µM (inactive) | > 100 µM (inactive) | > 100 µM (inactive) | 50.6 µM (inactive)
CN(C)CCNC(=O)c1cccc(N(C)C(=O)c2ccccc2)c1[N+](=O)[O-] | > 100 µM (inactive) | > 100 µM (inactive) | > 100 | > 100 µM (inactive) | > 100 µM (inactive) | > 100 µM (inactive) | > 100 µM (inactive) | > 100 µM (inactive) | > 100 µM (inactive) | > 100 µM (inactive) | > 100 µM (inactive) | > 100 µM (inactive) | – | > 100 µM (inactive) | > 100 µM (inactive) | > 100 µM (inactive) | > 10 µM (inactive) | > 100 µM (inactive) | > 100 µM (inactive)
CC(C)(C)OC(=O)NC1CCCC1C(O)(C1=CCCC1)C1=CCCC1 (stereo not drawn) | > 100 µM (inactive) | > 100 µM (inactive) | > 100 | > 100 µM (inactive) | – | > 100 µM (inactive) | – | > 100 µM (inactive) | > 100 µM (inactive) | – | > 100 µM (inactive) | > 100 µM (inactive) | > 100 µM (inactive) | – | > 100 µM (inactive) | 25.6 µM (inactive) | > 100 µM (inactive) | – | > 100 µM (inactive)
COc1cc2c(cc1OC)-c1[nH]c3ccc([N+](=O)[O-])cc3c1CC(=O)N2 | 2.35 µM (inactive) | 1.68 µM (inactive) | 2.11 | 2.39 µM (inactive) | 1.3 µM (inactive) | 0.867 µM (active) | 3.59 µM (inactive) | 1.71 µM (inactive) | 1.95 µM (inactive) | – | 0.726 µM (active) | 3.29 µM (inactive) | 1.43 µM (inactive) | 3.53 µM (inactive) | 0.849 µM (active) | 7.28 µM (inactive) | 8.49 µM (inactive) | 2.36 µM (inactive) | 0.2 µM (active)
